Source: patent US20110311633A1, “Combination of a Silicon Containing Component and a Hormone” (priority 2005, published 2011)

System: Pre-osteoblast cells
Test: Pre-osteoblast cells in oestrogen-free environment, hormone with or without silicon, total protein
Procedure: The cells for these respective experiments had also been passaged and maintained in media containing no added silicon (for the subsequent E2 or vehicle alone experiments) or containing 50 micromolar silicon (for the subsequent Si or E2+Si experiments).
Thus in experiments identical to those described above at the 48 hour time point, we investigated the effects of 10^−6 M progesterone instead of oestradiol.

CC(=O)[C@H]1CC[C@H]2[C@@H]3CCC4=CC(=O)CC[C@]4(C)[C@H]3CC[C@]12C [progesterone]
total protein (10^-6 M progesterone together with silicon (50 micromolar), 48 hour time point, FIG. 4): modest effect

C[C@]12CC[C@@H]3c4ccc(O)cc4CC[C@H]3[C@@H]1CC[C@@H]2O [oestradiol]
total protein concentration (10^-9 M E2, absence of silicon, varying lengths of time, versus baseline (vehicle), FIG. 2): no effect

orthosilicic acid
total protein (orthosilicic acid 50 micromolar without E2, oestrogen-free environment, FIG. 2): no significant effect
